The test has as its system enzyme dehydroxylating the hydroxyl group at the 9-position of urolithins. As to the kind of experiment: Effect of cofactor on enzyme activity (DEAE fraction). In kind it is biochemical, Clostridium bolteae JCM 12243 strain. The conditions noted are these: for Effect of cofactor on enzyme activity: cofactor individually added; for Relative activity: control without cofactor = 100%, DEAE fraction. On the procedure: A 100 mM Gly/NaOH buffer (pH 9.5) containing 0.05 mg/mL of urolithin C, 5 mM of NADH, and 1 μM of DTT was mixed with a reaction solution for measuring the enzyme activity of each fraction corresponding to 40 mL of the medium to give a total volume of 500 μL, and the mixture was placed in a 1.5-mL tube. A gas phase in an anaerobic chamber was used as a gas phase (Vinyl Anaerobic Chamber available from Coy Labs), and the mixture was reacted at 45° C. for 13 to 18 hours. After completion of the reaction, 200 μL of N,N-dimethylacetamide containing 10% -formic acid was added and mixed. Then, the mixture was centrifuged (10,000 rpm. 4° C., 3 minutes), and the resulting supernatant was analyzed by HPLC.
Solutions were prepared to contain a cofactor in a concentration as shown in Table 2 in the reaction solution for measuring the enzyme activity described in Experimental Example 5, and urolithin A produced after the reaction was quantified. The DEAE fraction was used as the enzyme.
In addition, FAD refers to flavin adenine dinucleotide.

On to `NC(=O)C1=CN([C@@H]2O[C@H](COP(=O)(O)OP(=O)(O)OC[C@H]3O[C@@H](n4cnc5c(N)ncnc54)[C@H](O)[C@@H]3O)[C@@H](O)[C@H]2O)C=CC1` [No. 2, reduced nicotinamide adenine dinucleotide], for which the “Effect of cofactor on enzyme activity” value is “Increase in activity”. Besides, the Relative activity (one cofactor at 10 mM) was 186%.

As to `NC(=O)C1=CN([C@@H]2O[C@H](COP(=O)(O)OP(=O)(O)OC[C@H]3O[C@@H](n4cnc5c(N)ncnc54)[C@H](OP(=O)(O)O)[C@@H]3O)[C@@H](O)[C@H]2O)C=CC1` [No. 3, reduced nicotinamide adenine dinucleotide phosphate], the “Effect of cofactor on enzyme activity” value is “Increase in activity”. Also, for the setting “one cofactor at 10 mM”, the Relative activity came out at 161%.

As for `Cc1cc2nc3c(=O)[nH]c(=O)nc-3n(C[C@H](O)[C@H](O)[C@H](O)COP(=O)(O)OP(=O)(O)OC[C@H]3O[C@@H](n4cnc5c(N)ncnc54)[C@H](O)[C@@H]3O)c2cc1C` [No. 4, flavin adenine dinucleotide], the Relative activity (one cofactor at 0.2 mM) is recorded as 95%.

For `Cc1cc2nc3c(=O)[nH]c(=O)nc-3n(C[C@H](O)[C@H](O)[C@H](O)COP(=O)(O)O)c2cc1C` [No. 5, flavin mononucleotide], the Relative activity (one cofactor at 0.2 mM) is reported as 96%.

These data come from US20230323414A1, “ENZYME DEHYDROXYLATING HYDROXYL GROUP AT 9-POSITION OF UROLITHIN COMPOUND” (DAICEL CORPORATION, priority 2020, published 2023).
